Laboratory results published in patent US5536744A, “Imidazolinoxyl derivatives” (Dojindo Laboratories, priority 1993, dated 1996).
Where two headings read alike, the source gives them in different places.

What was measured:
[1] = system: circumflex branch of the left coronary artery; test: Comparative Example 1: blood flow after administration of compound A reduced with ascorbic acid; assay type: in vivo, mongrel dogs
Experimental: The operation of Example 4 was conducted by administering the compound A wherefrom the N-oxyl radical was inactivated only after reducing with ascorbic acid. […] It is therefore apparent that the pharmacological action was due to the radical in the molecule and that the compounds of the present invention are the pharmaceuticals of a new type.

[2] = Behavior of compound A in blood flow: blood and urine samples determined by electronic spin resonance after the administration; details: for clearance (in words) / excretion from the kidney: dog, in vivo
Experimental: Thus, within a certain period after the administration, samples of blood and urine were collected and "a concentration of the compound A which was unchanged and retained" and "a total concentration after oxidization with potassium ferricyanide" were determined by means of an electronic spin resonance (RF80; Nippon Denshi).

[3] = system: circumflex branch of the left coronary artery; test: Test on the relaxation of coronary arteries: coronary blood flow and blood flow status (haemodynamics) in anesthetized open-chest dogs, intracoronary administration; assay type: in vivo, mongrel adult dogs; details: for Blood Flow at Rotation Branch: 4 min
Experimental: Twenty mongrel adult dogs were anesthetized with 30 mg/kg pentobarbital, their breasts were opened under an artificial respiration and heparin (3,000 IU/kg; each 1,000 IU/mg administered intravenously every 30 minutes thereafe) and aspirin (17 mg/kg) were administered. Then a cannula was inserted near the circumflex branch of the left coronary artery and a perfusion was conducted by means of a bypath from the whole left carotid artery. Coronary blood flow was measured, by an electromagnetic blood flowmeter (MFV-3200 manufactured by Nippon Koden) via a probe for measuring the blood flow (manufactured by Nippon Koden) located at the center of the bypath while the artery pressure and the left cardiac pressure were measured at an underarm artery and by means of a catheter inserted from the apex, respectively.

[4] = system: circumflex branch of the left coronary artery; test: Effect of various pharmaceuticals on coronary blood flow increase by administration of compound A; assay type: in vivo, mongrel adult dogs; details: 1.0 mM in artery
Experimental: The compound A was administered for four minutes, by the same manner as in Example 6, to a control group, to a group (LNAME-treated group) which was pretreated with a methyl ester of NG-nitro-L-arginine which was an inhibitor for the production of nitrogen monoxide caused by endothelium (by administering to the coronary artery at the dose of 200 μM for six minutes), to a group (8PT-treated group) which was pretreated with 8-phenyltheophylline which was an adenosnine antagonist (by administering to the coronary artery at the dose of 30 ng/kg/minute) an a group (autonomic nerve blocking group) which was pretreated with a pharmacological autonomic blocking agent (by an intravenous administration of 0.1 mg/kg of atropine, 1 mg/kg of propranolol and 2 mg/kg of phentolamine) to make the concentration of the compound A in the coronary artery 1.0 mM whereby the results were compared.

[5] = system: ring samples of the circumflex branch (coronary artery); test: In vitro test: relaxation of ring samples of the circumflex branch precontracted by prostaglandin F2α (isometric tension); parameters: species or system mongrel adult dogs; details: for EC50: Canis lupus familiaris, read-out: ED50 value expressed in terms of a minus logarithm of the administered concentration, endothelium absent (converted)
Experimental: After an anesthetization of the mongrel adult dogs, the extracted ring samples (outer diameter: about 2 mm) of the circumflex branch were prepared, hung in a chamber filled with 3 ml of a Krebs buffer which was oxidated (with 95% oxygen and 5% […]), balanced with an initial tension of 2 g and subjected to a precontraction by prostaglandin F2α (concentration in the chamber: 2 μM).
To this was added the compound A on an accumulated manner whereby its concentration in the chamber became from 1 μM to 1 mM and the resulting changes in the isometric tension were measured using a tranducer (manufactured by Minebea) and recorded in a pen recorder (SR6211 manufactured by Graphtec). Incidentally, the changes in the tension were evaluated on a basis that the precontraction by prostaglandin F2α was 100%. In some of the samples, the endothelium was exfoliated (confirmed by a disappearance of the relaxation to 1 μM of acetylcholine) and, furthermore, they were subjected to a pretreatment with Methylene Blue, an inhibitor for a soluble guanylate cyclase, (concentration in the chamber: 10 μM; administered 30 minutes before) whereby the effect was investigated.
Therefore, it is supposed that the compounds of the present invention activated the guanylate cyclase on a continued basis whereby the blood vessel was continuously relaxed.

For `CC1(C)N=C(c2ccc(C(=O)O)cc2)N(O)C1(C)C`, the “blood flow after the administration” value ([1]; 1.0 mM (FIG. 3), before the administration 22.4 ml/minute) was 22.8 mL/min, the “pharmacological action (in words)” value ([1]; after reducing with ascorbic acid) was “completely disappeared” and the “change in the blood flow (in words)” value ([1]; before vs after the administration, FIG. 3) was “no changes in the blood flow”. For the same compound, the “clearance (in words)” value [2] was “very prompt” and the “excretion from the kidney” value [2] was “rapidly excreted from the kidney”.

With `CC1(C)N=C(c2ccc(C(=O)O)cc2)N([O])C1(C)C` [Compound A] the “Av. Blood Pressure” value ([3]; 0.1 mM in artery) was 130 ± 8 mmHg, the “Left Cardiac dp/dt” value ([3]; 0.1 mM in artery) was 1132 ± 60 mmHg/sec and the “Pres. at Final Stage of Left Cardiac Dilation” value (“Pres. at Final Stage” below) ([3]; 0.1 mM in artery) was 11 ± 2 mmHg. The “Pulse Numbers” value ([3]; 0.1 mM in artery) was 155 ± 8 min⁻¹, the “Blood Flow at Rotation Branch” value ([3]; 0.1 mM in artery) was 29.8 ± 3.6 mL/min and the “Av. Blood Pressure” value ([3]; 0.3 mM in artery) was 133 ± 8 mmHg. For the same compound, the “Left Cardiac dp/dt” value ([3]; 0.3 mM in artery) was 1210 ± 63 mmHg/sec, the “Pres. at Final Stage” value ([3]; 0.3 mM in artery) was 10 ± 2 mmHg and the “Pulse Numbers” value ([3]; 0.3 mM in artery) was 154 ± 8 min⁻¹. The “Blood Flow at Rotation Branch” value ([3]; 0.3 mM in artery, p < 0.05 to the control) was 41.5 ± 5.7 mL/min, the “duration of effect on coronary blood flow after completion of the administration” value ([3]; 1 mM for four minutes) was at least 30 min and the “increase in coronary blood flow (fold)” value ([3]; 1 mM for four minutes) was “about three”. For the same compound, the “increasing rate of coronary blood flow” value ([3]; 1 mM for four minutes) was “ca. 200%”, the “Av. Blood Pressure” value ([3]; 1.0 mM in artery) was 132 ± 7 mmHg and the “Left Cardiac dp/dt” value ([3]; 1.0 mM in artery) was 1241 ± 50 mmHg/sec. For the same compound, the “Pres. at Final Stage” value ([3]; 1.0 mM in artery) was 10 ± 2 mmHg, the “Pulse Numbers” value ([3]; 1.0 mM in artery) was 157 ± 8 min⁻¹ and the “Blood Flow at Rotation Branch” value ([3]; 1.0 mM in artery, p < 0.01 to the control, 0.1 mM and 0.3 mM) was 89.7 ± 10.6 mL/min. For the same compound, the “blood pressure (in words)” value ([3]; 0.1, 0.3 and 1.0 mM in artery) was “no change”, the “contracting power of the heart (in words)” value ([3]; 0.1, 0.3 and 1.0 mM in artery) was “rather improved” and the “left cardiac dp/dt (in words)” value ([3]; 0.1, 0.3 and 1.0 mM in artery) was “increasing tendency”. The “pressure at the final stage of the left cardiac dilation (in words)” value ([3]; 0.1, 0.3 and 1.0 mM in artery) was “no change”, the “pulse numbers (in words)” value ([3]; 0.1, 0.3 and 1.0 mM in artery) was “no change” and the “coronary blood flow (in words)” value ([3]; 0.1, 0.3 and 1.0 mM in artery, FIG. 2) was “significant increase in the coronary blood flow”. For the same compound, the “side effect (in words)” value ([3]; intracoronary administration) was “no side effect was noted”, the “% Increase of blood flow in rotary branch” value (from here on “% Increase of blood flow”) ([4]; 8PT-treated group) was 120 ± 10% and the “Blood Flow in Rotary Branch, after administration of Compd A” value (“Blood Flow in Rotary Branch … of Compd A” for short) ([4]; 8PT-treated group, before 23.1 ± 2.7) was 51.6 ± 5.8 mL/min. The “influence of pretreatments on the action of the compound A (in words)” value ([4]; LNAME, 8-phenyltheophylline, autonomic blockade) was “none of the pharmaceuticals affected on the action of the compound A”, the “% Increase of blood flow” value ([4]; LNAME-treated group) was 155 ± 28% and the “Blood Flow in Rotary Branch … of Compd A” value ([4]; LNAME-treated group, before 26.1 ± 2.7) was 67.0 ± 11.5 mL/min. For the same compound, the “% Increase of blood flow” value ([4]; autonomic nerve blocked group) was 137 ± 56%, the “Blood Flow in Rotary Branch … of Compd A” value ([4]; autonomic nerve blocked group, before 19.5 ± 3.3) was 49.3 ± 18.5 mL/min and the “% Increase of blood flow” value ([4]; control group) was 164 ± 31%. For the same compound, the “Blood Flow in Rotary Branch … of Compd A” value ([4]; control group, before 32.0 ± 2.1) was 84.9 ± 13.7 mL/min, the “influence of the endothelium on coronary artery relaxation (in words)” value ([5]; 1 μM to 1 mM, with vs without endothelium, FIG. 4) was “stronger than that in the absence of the endothelium” and the EC50 ([5]; no Methylene Blue) was 10 µM. The EC50 ([5]; with Methylene Blue 10 μM, 30 minutes before, p<0.01) was 79.4 µM, the “reduction in blood (stability of N-oxyl radical)” value ([2]; by ascorbic acid, etc. in blood) was “quickly reduced by ascorbic acid, etc. in blood” and the “clearance (in words)” value [2] was “very prompt”. For the same compound, the “excretion from the kidney” value [2] was “rapidly excreted from the kidney” and the “total amount of compound A remaining in the blood” value ([2]; one minute after the administration) was “about 0.3%”.

With `CN(C)c1ccc2nc3ccc(=[N+](C)C)cc-3sc2c1` [Methylene Blue, reference compound] the “inhibition of the coronary artery relaxing action of compound A (in words)” value ([5]; endothelium absent, 10 μM, 30 minutes before) was “found to inhibit that”.
